# Measurements as given in US20250186437A1, “CARBOLINE COMPOUNDS AND USE THEREOF” (PTC Therapeutics, Inc., priority 2021, published 2025).
# Test system: MOLM-13 cells
# Assay: MOLM-13 Cell Proliferation Assay (indicator of DHODH inhibition)
# Assay type: cell-based
# Settings: 72 Hours of culture, CellTiter-Glo, no uridine
# Outline: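 Proliferation readout via CellTiter-Glo luminescence after 72 h compound treatment (37 °C, 5% CO2, 0.5% DMSO) of MOLM-13 cells seeded at 10^4 per well in RPMI 1640/10% FBS, used as a DHODH-inhibition indicator since these cells rely on de novo pyrimidine synthesis.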
row,IC50 [nM],SMILES
1,8.1,"COC(=O)c1ncc([C@H]2c3[nH]c4ccc(Cl)cc4c3CCN2c2nc(C(F)(F)F)nc(C(F)(F)F)n2)cn1 [Compound 532, methyl 5-{(1S)-2-[4,6-bis(trifluoromethyl)-1,3,5-triazin-2-yl]-6-chloro-2,3,4,9-tetrahydro-1H-pyrido[3,4-b]indol-1-yl} pyrimidine-2-carboxylate]"

# Same assay, conditions: Homo sapiens, 72 Hours of culture, CellTiter-Glo, no uridine
row,IC50 [nM],SMILES
1,3.8,"C[C@@H]1CN(c2ncc([C@H]3c4[nH]c5ccc(Cl)cc5c4CCN3c3nc(C(F)(F)F)cc(C(F)(F)F)n3)cn2)CCN1 [Compound 511, (1S)-2-[4,6-bis(trifluoromethyl)pyrimidin-2-yl]-6-chloro-1-{2-[(3R)-3-methylpiperazin-1-yl]pyrimidin-5-yl}-2,3,4,9-tetrahydro-1H-pyrido[3,4-b]indole]"
2,1.6,"FC(F)(F)c1cc(C(F)(F)F)nc(N2CCc3c([nH]c4ccc(Cl)cc34)[C@@H]2c2cnc(N3CCNC4(CC4)C3)nc2)n1 [Compound 512, (1S)-2-[4,6-bis(trifluoromethyl)pyrimidin-2-yl]-6-chloro-1-[2-(4,7-diazaspiro[2.5]octan-7-yl)pyrimidin-5-yl]-2,3,4,9-tetrahydro-1H-pyrido[3,4-b]indole]"
3,11.2,"CN1CCN(c2ccc(C3c4[nH]c5ccc(-n6nccn6)cc5c4CCN3c3nccc(C(F)(F)F)n3)cn2)CC1 (centres unmarked) [Compound 513, 1-[6-(4-methylpiperazin-1-yl)pyridin-3-yl]-6-(2H-1,2,3-triazol-2-yl)-2-[4-(trifluoromethyl)pyrimidin-2-yl]-2,3,4,9-tetrahydro-1H-pyrido[3,4-b]indole]"
4,0.6,"FC(F)(F)c1cc(C(F)(F)F)nc(N2CCc3c([nH]c4ccc(-n5nccn5)cc34)[C@@H]2c2cnc(N3CCOCC3)nc2)n1 [Compound 514, (1S)-2-[4,6-bis(trifluoromethyl)pyrimidin-2-yl]-1-[2-(morpholin-4-yl)pyrimidin-5-yl]-6-(2H-1,2,3-triazol-2-yl)-2,3,4,9-tetrahydro-1H-pyrido[3,4-b]indole]"
5,1.4,"FC(F)(F)c1nc(N2CCc3c([nH]c4ccc(-n5nccn5)cc34)[C@@H]2c2cnc(N3CCOCC3)nc2)nc(C(F)(F)F)n1 [Compound 516, (1S)-2-[4,6-bis(trifluoromethyl)-1,3,5-triazin-2-yl]-1-[2-(morpholin-4-yl)pyrimidin-5-yl]-6-(2H-1,2,3-triazol-2-yl)-2,3,4,9-tetrahydro-1H-pyrido[3,4-b]indole]"
6,3.2,"C[C@H]1CN(c2ncc([C@H]3c4[nH]c5ccc(Cl)cc5c4CCN3c3nc(C(F)(F)F)cc(C(F)(F)F)n3)cn2)CCN1 [Compound 517, (1S)-2-[4,6-bis(trifluoromethyl)pyrimidin-2-yl]-6-chloro-1-{2-[(3S)-3-methylpiperazin-1-yl]pyrimidin-5-yl}-2,3,4,9-tetrahydro-1H-pyrido[3,4-b]indole]"
7,0.8,"Cc1ccc([C@H]2c3[nH]c4ccc(Br)cc4c3CCN2c2nc(C(F)(F)F)cc(C(F)(F)F)n2)c(F)c1F [Compound 518, (1S)-2-[4,6-bis(trifluoromethyl)pyrimidin-2-yl]-6-bromo-1-(2,3-difluoro-4-methylphenyl)-2,3,4,9-tetrahydro-1H-pyrido[3,4-b]indole]"
8,0.3,"Cc1ccc([C@H]2c3[nH]c4ccc(-n5nccn5)cc4c3CCN2c2nc(C(F)(F)F)cc(C(F)(F)F)n2)c(F)c1F [Compound 519, (1S)-2-[4,6-bis(trifluoromethyl)pyrimidin-2-yl]-1-(2,3-difluoro-4-methylphenyl)-6-(2H-1,2,3-triazol-2-yl)-2,3,4,9-tetrahydro-1H-pyrido[3,4-b]indole]"
9,1.7,"Cc1cnn(-c2ccc3[nH]c4c(c3c2)CCN(c2nc(C(F)(F)F)cc(C(F)(F)F)n2)[C@H]4c2ccc(C)c(F)c2F)n1 [Compound 520, (1S)-2-[4,6-bis(trifluoromethyl)pyrimidin-2-yl]-1-(2,3-difluoro-4-methylphenyl)-6-(4-methyl-2H-1,2,3-triazol-2-yl)-2,3,4,9-tetrahydro-1H-pyrido[3,4-b]indole]"
10,3.3,"Cc1ccc([C@H]2c3[nH]c4ccc(Cl)cc4c3CCN2c2nc(CO)nc(C(F)(F)F)n2)c(F)c1F [Compound 521, {4-[(1S)-6-chloro-1-(2,3-difluoro-4-methylphenyl)-1,3,4,9-tetrahydro-2H-pyrido[3,4-b]indol-2-yl]-6-(trifluoromethyl)-1,3,5-triazin-2-yl}methanol]"
11,0.7,"COc1ncc([C@H]2c3[nH]c4ccc(Cl)cc4c3CCN2c2nc(C(F)(F)F)nc(C(F)(F)F)n2)cn1 [Compound 522, (1S)-2-[4,6-bis(trifluoromethyl)-1,3,5-triazin-2-yl]-6-chloro-1-(2-methoxypyrimidin-5-yl)-2,3,4,9-tetrahydro-1H-pyrido[3,4-b]indole]"
12,0.6,"Cc1ccc([C@H]2c3[nH]c4ccc(Br)cc4c3CCN2c2nc(C(F)(F)F)nc(C(F)(F)F)n2)c(F)c1F [Compound 523, (1S)-2-[4,6-bis(trifluoromethyl)-1,3,5-triazin-2-yl]-6-bromo-1-(2,3-difluoro-4-methylphenyl)-2,3,4,9-tetrahydro-1H-pyrido[3,4-b]indole]"
13,0.3,"Cc1ccc([C@H]2c3[nH]c4ccc(-n5nccn5)cc4c3CCN2c2nc(C(F)(F)F)nc(C(F)(F)F)n2)c(F)c1F [Compound 524, (1S)-2-[4,6-bis(trifluoromethyl)-1,3,5-triazin-2-yl]-1-(2,3-difluoro-4-methylphenyl)-6-(2H-1,2,3-triazol-2-yl)-2,3,4,9-tetrahydro-1H-pyrido[3,4-b]indole]"
14,1.3,"Cc1cnn(-c2ccc3[nH]c4c(c3c2)CCN(c2nc(C(F)(F)F)nc(C(F)(F)F)n2)[C@H]4c2ccc(C)c(F)c2F)n1 [Compound 525, (1S)-2-[4,6-bis(trifluoromethyl)-1,3,5-triazin-2-yl]-1-(2,3-difluoro-4-methylphenyl)-6-(4-methyl-2H-1,2,3-triazol-2-yl)-2,3,4,9-tetrahydro-1H-pyrido[3,4-b]indole]"
15,0.5,"Cc1ccc([C@H]2c3[nH]c4ccc(Cl)cc4c3CCN2c2nc(CF)nc(C(F)(F)F)n2)c(F)c1F [Compound 526, (1S)-6-chloro-1-(2,3-difluoro-4-methylphenyl)-2-[4-(fluoromethyl)-6-(trifluoromethyl)-1,3,5-triazin-2-yl]-2,3,4,9-tetrahydro-1H-pyrido[3,4-b]indole]"
16,0.6,"Cc1ccc([C@H]2c3[nH]c4ccc([N+](=O)[O-])cc4c3CCN2c2nc(C(F)(F)F)nc(C(F)(F)F)n2)c(F)c1F [Compound 527, (1S)-2-[4,6-bis(trifluoromethyl)-1,3,5-triazin-2-yl]-1-(2,3-difluoro-4-methylphenyl)-6-nitro-2,3,4,9-tetrahydro-1H-pyrido[3,4-b]indole]"
17,1.2,"COc1ccc2[nH]c3c(c2c1)CCN(c1nc(C(F)(F)F)cc(C(F)(F)F)n1)[C@H]3c1ccc(C)c(F)c1F [Compound 528, (1S)-2-[4,6-bis(trifluoromethyl)pyrimidin-2-yl]-1-(2,3-difluoro-4-methylphenyl)-6-methoxy-2,3,4,9-tetrahydro-1H-pyrido[3,4-b]indole]"
18,4.1,"Cc1cnn(-c2ccc3[nH]c4c(c3c2)CCN(c2nc(C(F)(F)F)nc(C(F)(F)F)n2)[C@H]4c2ccc(C)c(F)c2F)c1 [Compound 529, (1S)-2-[4,6-bis(trifluoromethyl)-1,3,5-triazin-2-yl]-1-(2,3-difluoro-4-methylphenyl)-6-(4-methyl-1H-pyrazol-1-yl)-2,3,4,9-tetrahydro-1H-pyrido[3,4-b]indole]"
19,10.9,"Cc1ccn(-c2ccc3[nH]c4c(c3c2)CCN(c2nc(C(F)(F)F)nc(C(F)(F)F)n2)[C@H]4c2ccc(C)c(F)c2F)n1 [Compound 530, (1S)-2-[4,6-bis(trifluoromethyl)-1,3,5-triazin-2-yl]-1-(2,3-difluoro-4-methylphenyl)-6-(3-methyl-1H-pyrazol-1-yl)-2,3,4,9-tetrahydro-1H-pyrido[3,4-b]indole]"
20,5,"CN(C)CCNc1ncc([C@H]2c3[nH]c4ccc(Cl)cc4c3CCN2c2nc(C(F)(F)F)nc(C(F)(F)F)n2)cn1 [Compound 531, N^2-(5-{(1S)-2-[4,6-bis(trifluoromethyl)-1,3,5-triazin-2-yl]-6-chloro-2,3,4,9-tetrahydro-1H-pyrido[3,4-b]indol-1-yl}pyrimidin-2-yl)-N^1,N^1-dimethylethane-1,2-diamine]"
21,4.7,"CC(=O)c1ncc([C@H]2c3[nH]c4ccc(Cl)cc4c3CCN2c2nc(C(F)(F)F)nc(C(F)(F)F)n2)cn1 [Compound 533, 1-(5-{(1S)-2-[4,6-bis(trifluoromethyl)-1,3,5-triazin-2-yl]-6-chloro-2,3,4,9-tetrahydro-1H-pyrido[3,4-b]indol-1-yl}pyrimidin-2-yl)ethan-1-one]"
22,0.8,"COCCOc1ncc([C@H]2c3[nH]c4ccc(Cl)cc4c3CCN2c2nc(C(F)(F)F)nc(C(F)(F)F)n2)cn1 [Compound 534, (1S)-2-[4,6-bis(trifluoromethyl)-1,3,5-triazin-2-yl]-6-chloro-1-[2-(2-methoxyethoxy)pyrimidin-5-yl]-2,3,4,9-tetrahydro-1H-pyrido[3,4-b]indole]"
23,0.7,"OCCNc1ncc([C@H]2c3[nH]c4ccc(Cl)cc4c3CCN2c2nc(C(F)(F)F)nc(C(F)(F)F)n2)cn1 [Compound 535, 2-[(5-{(1S)-2-[4,6-bis(trifluoromethyl)-1,3,5-triazin-2-yl]-6-chloro-2,3,4,9-tetrahydro-1H-pyrido[3,4-b]indol-1-yl}pyrimidin-2-yl)amino]ethan-1-ol]"
24,1.2,"COCCOc1ncc(C2c3[nH]c4ccc(Cl)cc4c3CCN2c2nc(C(F)(F)F)nc(C(F)(F)F)n2)cn1 (centres unmarked) [Compound 536, 2-[4,6-bis(trifluoromethyl)-1,3,5-triazin-2-yl]-6-chloro-1-[2-(2-methoxyethoxy)pyrimidin-5-yl]-2,3,4,9-tetrahydro-1H-pyrido[3,4-b]indole]"
25,4,"O=C(O)CCNc1ncc([C@H]2c3[nH]c4ccc(Cl)cc4c3CCN2c2nc(C(F)(F)F)nc(C(F)(F)F)n2)cn1 [Compound 537, N-(5-{(1S)-2-[4,6-bis(trifluoromethyl)-1,3,5-triazin-2-yl]-6-chloro-2,3,4,9-tetrahydro-1H-pyrido[3,4-b]indol-1-yl}pyrimidin-2-yl)-β-alanine]"
